Patent US20240238232A1, “COMPOSITIONS AND METHODS FOR THE REDUCTION OR TREATMENT OF INSULIN RESISTANCE AND METABOLIC CONDITIONS” (AXCELLA HEALTH INC., priority 2018, published 2024)

What was measured:
Format in all cases: in vivo
FATZO mouse model [1] = assay: Liver fibrosis score and Sirius Red collagen staining in FATZO mice on WDF, Example 5; conditions: oral, 4 weeks, LIVRQNAC + G 3885 mg/kg, LRQNAC 2469 mg/kg, OCA 30 mg/kg/day
Source text: (§1) NASH was induced in 60 male FATZO mice by a western diet (Research Diet #D12079B; fat 40% kcal, protein 17% kcal, carbohydrate 43% kcal) supplemented with 500 fructose in the drinking water (WDF) during a 16 week induction phase. Diets and water were available ad libitum. Littermate control male FATZO mice fed with a control diet (n=6, Purina #5008; fat 17% kcal, protein 27% kcal, carbohydrate 56% kcal) and sterile water were set up for control purpose. Mice were housed in plastic cages with microisolator. Sterilized bedding was replaced once a week. Mice were housed three per cage and maintained on a twelve hour light cycle throughout study duration. Room temperature was monitored daily and maintained at 22-25° C. Body weight was recorded every week during the induction phase. […]
(§2) […], […]+G, LRQNAC, OCA and Vehicle were administered by oral gavage at a volume of 10 mL/kg throughout the study. Dosages were calculated by daily body weight. […]
The livers were evaluated using the NASH liver criteria for scoring. In this mouse study, one cross section of liver for each case was analyzed with the NASH score system. […] The NAS can range from 0 to 8 and is calculated by the sum of scores of steatosis (0-3), lobular inflammation (0-3) and hepatocyte ballooning (0-2) from H&E stained sections. Fibrosis was scored (0-4) from picrosirius red stained slides. […]

FATZO mouse model [2] = assay: Liver triglyceride and cholesterol content in FATZO mice on WDF, Example 5; conditions: 4 weeks
Source text: NASH was induced in 60 male FATZO mice by a western diet (Research Diet #D12079B; fat 40% kcal, protein 17% kcal, carbohydrate 43% kcal) supplemented with 500 fructose in the drinking water (WDF) during a 16 week induction phase. Diets and water were available ad libitum. Littermate control male FATZO mice fed with a control diet (n=6, Purina #5008; fat 17% kcal, protein 27% kcal, carbohydrate 56% kcal) and sterile water were set up for control purpose. Mice were housed in plastic cages with microisolator. Sterilized bedding was replaced once a week. Mice were housed three per cage and maintained on a twelve hour light cycle throughout study duration. Room temperature was monitored daily and maintained at 22-25° C. Body weight was recorded every week during the induction phase.
Following 16 weeks diet induction, 6 mice remained on control diet (group 1, Control) while 60 induced mice were randomized on body weight and plasma glucose (fed) for assignment to the following treatments. FATZO mice were administered with test articles starting at 16 weeks post western diet NASH induction for 4 weeks. Test articles were administered by oral gavage. Animals were euthanized at 20 weeks post western diet NASH induction, and tissues were harvested for analysis.
[…], […]+G, LRQNAC, OCA and Vehicle were administered by oral gavage at a volume of 10 mL/kg throughout the study. Dosages were calculated by daily body weight. […], […]+G, LRQNAC, and Vehicle were administered twice per day (BID), while OCA was administered once a day (QD) in the morning. Mice receiving OCA once per day (QD), and one vehicle QD. Doses were administered by oral gavage at 0700 and 1800 by oral gavage for 4 weeks.
Liver triglyceride and cholesterol content were similarly elevated after WDF feeding compared to vehicle treated animals fed control diet (liver triglyceridep<00.0040; liver cholesterol: p<0.0001). Among animals fed WDF, there were no significant differences in liver triglyceride (p<0.1206) when compared to vehicle for any treatment group. […]

FATZO mouse model [3] = assay: Body weight, liver weight and clinical observations in FATZO mice on WDF, Example 5; conditions: oral gavage 4 weeks, LIVRQNAC 3000 mg/kg, LIVRQNAC+G 3,885 mg/kg, LRQNAC 2,469 mg/kg BID, OCA QD
Source text: as §1, §2
The viability, clinical signs and behavior were monitored daily. Body weight was recorded daily during the dosing period. […]
Animals were anesthetized with CO2 inhalation and exsanguinated via cardiac puncture for euthanasia. […] Organ weights (total liver, gonadal fat pads) were recorded. […]

[4] = oral, LIVRQNAC + G 3885 mg/kg, LRQNAC 2469 mg/kg, OCA 30 mg/kg/day

Compound: CC[C@H]1[C@@H](O)[C@@H]2[C@H](CC[C@]3(C)[C@@H]([C@H](C)CCC(=O)O)CC[C@@H]23)[C@@]2(C)CC[C@@H](O)C[C@@H]12 [OCA, 6α-ethyl-chenodeoxycholic acid]
- Fibrosis (score) (FATZO mouse model [1]): 0.67 ± 0.167
- Sirius Red (collagen staining) (FATZO mouse model [1]): 1.59 ± 0.36
- Reduction of liver cholesterol content compared to vehicle (FATZO mouse model [2]): 32%
- Liver Cholesterol (FATZO mouse model [2]; [4]): 5.63 ± 0.495
- Liver Triglyceride (FATZO mouse model [2]; [4]): 49.81 ± 1.63
- Liver weight (% body weight) (FATZO mouse model [3]): 6.81±0.2 % body weight
